# According to ChEMBL document CHEMBL4177526, “Discovery and structure activity relationship of the first potent cryptosporidium FIKK kinase inhibitor” (Bioorg Med Chem, 2017):
# pIC50: −log10 of the molar value.
# Experiments:
# [1] = target: Insulin receptor-related protein (Homo sapiens) (UniProt P14616); assay: Inhibition of human IRR (944 to 1236 residues) assessed as residual activity at 500 nM in presence of 33P-ATP by filter binding assay relative to control
# [2] = target: Receptor-interacting serine/threonine-protein kinase 2 (Homo sapiens) (UniProt O43353); assay: Inhibition of human RIPK2 (2 to 311 residues) at 500 nM in presence of 33P-ATP by filter binding assay relative to control
# [3] = target: Misshapen-like kinase 1 (Homo sapiens) (UniProt Q8N4C8); assay: Inhibition of human MINK1 (1 to 320 residues) assessed as residual activity at 500 nM in presence of 33P-ATP by filter binding assay relative to control
# [4] = target: Dual specificity tyrosine-phosphorylation-regulated kinase 2 (Homo sapiens) (UniProt Q92630); assay: Inhibition of human DYRK2 (3 to 528 residues) assessed as residual activity at 500 nM in presence of 33P-ATP by filter binding assay relative to control
# TAK1/TAB1 (Homo sapiens) = TAK1/TAB1 (Homo sapiens) (UniProt Q15750+O43318); assay: Inhibition of human TAK1 (1 to 303 residues)/TAB1 (437 to 504 residues) at 500 nM in presence of 33P-ATP by filter binding assay relative to control; assay type: protein-complex assay
# [5] = target: Serine/threonine-protein kinase pim-1 (Homo sapiens) (UniProt P11309); assay: Inhibition of human PIM1 (2 to 313 residues) assessed as residual activity at 500 nM in presence of 33P-ATP by filter binding assay relative to control
# [6] = target: High affinity nerve growth factor receptor (Homo sapiens) (UniProt P04629); assay: Inhibition of human TRKA (441 to 760 residues) assessed as residual activity at 500 nM in presence of 33P-ATP by filter binding assay relative to control
# [7] = target: Serine/threonine-protein kinase MARK2 (Homo sapiens) (UniProt Q7KZI7); assay: Inhibition of human MARK2 (2 to 691 residues) assessed as residual activity at 500 nM in presence of 33P-ATP by filter binding assay relative to control
# [8] = target: Serine/threonine-protein kinase WNK1 (Homo sapiens) (UniProt Q9H4A3); assay: Inhibition of human WNK1 (1 to 661 residues) assessed as residual activity at 500 nM in presence of 33P-ATP by filter binding assay relative to control
# [9] = target: Mitogen-activated protein kinase 14 (Homo sapiens) (UniProt Q16539); assay: Inhibition of human p38alpha (1 to 360 residues) assessed as residual activity at 500 nM in presence of 33P-ATP by filter binding assay relative to control
# [10] = test system: TGF-beta receptor type-1 (Homo sapiens), P36897 [T204D]; assay: Inhibition of human TGFbetaR1 T204D mutant (200 to 501 residues) at 500 nM in presence of 33P-ATP by filter binding assay relative to control
# [11] = Inhibition of recombinant Cryptosporidium parvum FIKK using RRRAPSFYRK peptide as substrate by NADH coupled LDH-PK ATPase assay
# [12] = Permeability in human Caco2 cells; assay type: ADME, cell-based; conditions: Caco-2, read-out: permeability
# [13] = target: MAP kinase-activated protein kinase 5 (Homo sapiens) (UniProt Q8IW41); assay: Inhibition of human PRAK (1 to 471 residues) assessed as residual activity at 500 nM in presence of 33P-ATP by filter binding assay relative to control
# [14] = target: Death-associated protein kinase 1 (Homo sapiens) (UniProt P53355); assay: Inhibition of human DAPK1 (1 to 363 residues) assessed as residual activity at 500 nM in presence of 33P-ATP by filter binding assay relative to control
# [15] = target: Rho-associated protein kinase 2 (Homo sapiens) (UniProt O75116); assay: Inhibition of human ROCK2 (2 to 543 residues) assessed as residual activity at 500 nM in presence of 33P-ATP by filter binding assay relative to control
# [16] = target: MAP kinase-activated protein kinase 3 (Homo sapiens) (UniProt Q16644); assay: Inhibition of human MAPKAPK3 (2 to 382 residues) assessed as residual activity at 500 nM in presence of 33P-ATP by filter binding assay relative to control
# [17] = target: Ribosomal protein S6 kinase alpha-5 (Homo sapiens) (UniProt O75582); assay: Inhibition of human MSK1 (2 to 802 residues) assessed as residual activity at 500 nM in presence of 33P-ATP by filter binding assay relative to control
# [18] = target: Serine/threonine-protein kinase 3 (Homo sapiens) (UniProt Q13188); assay: Inhibition of human MST2 (2 to 491 residues) assessed as residual activity at 500 nM in presence of 33P-ATP by filter binding assay relative to control
# [19] = target: MAP kinase-interacting serine/threonine-protein kinase 2 (Homo sapiens) (UniProt Q9HBH9); assay: Inhibition of human MNK2alpha (2 to 465 residues) assessed as residual activity at 500 nM in presence of 33P-ATP by filter binding assay relative to control
# [20] = target: SRSF protein kinase 1 (Homo sapiens) (UniProt Q96SB4); assay: Inhibition of human SRPK1 (2 to 654 residues) assessed as residual activity at 500 nM in presence of 33P-ATP by filter binding assay relative to control
# [21] = target: Serine/threonine-protein kinase BRSK1 (Homo sapiens) (UniProt Q8TDC3); assay: Inhibition of human BRSK1 (2 to 778 residues) assessed as residual activity at 500 nM in presence of 33P-ATP by filter binding assay relative to control
# [22] = target: Serine/threonine-protein kinase Sgk1 (Homo sapiens) (UniProt O00141); assay: Inhibition of human SGK1 (60 to 431 residues) assessed as residual activity at 500 nM in presence of 33P-ATP by filter binding assay relative to control
# [23] = target: 3-phosphoinositide-dependent protein kinase 1 (Homo sapiens) (UniProt O15530); assay: Inhibition of human PDK1 (52 to 556 residues) assessed as residual activity at 500 nM in presence of 33P-ATP by filter binding assay relative to control
# [24] = target: Homeodomain-interacting protein kinase 1 (Homo sapiens) (UniProt Q86Z02); assay: Inhibition of human HIPK1 (158 to 555 residues) assessed as residual activity at 500 nM in presence of 33P-ATP by filter binding assay relative to control
# [25] = target: Mitogen-activated protein kinase 13 (Homo sapiens) (UniProt O15264); assay: Inhibition of human p38delta (1 to 365 residues) assessed as residual activity at 500 nM in presence of 33P-ATP by filter binding assay relative to control
# [26] = target: Ephrin type-B receptor 1 (Homo sapiens) (UniProt P54762); assay: Inhibition of human EPHB1 (565 to 984 residues) assessed as residual activity at 500 nM in presence of 33P-ATP by filter binding assay relative to control
structure (smiles),measurement,setting,value
Cc1cccc(-c2nc(N)sc2-c2ccc3ncccc3n2)c1,Activity,[1],94%
same,inhibition,[2],70%
same,Activity,[3],74%
same,Activity,[4],116%
same,inhibition,TAK1/TAB1 (Homo sapiens),60%
same,Activity,[5],97%
same,Activity,[6],97%
same,Activity,[7],134%
same,Activity,[8],107%
same,Activity,[9],9%
same,inhibition,[10],86%
same,pIC50,[11],9.70
same,Papp,[12],11 ×10⁻⁶ cm/s
same,Activity,[13],105%
same,Activity,[14],96%
same,Activity,[15],112%
same,Activity,[16],100%
same,Activity,[17],115%
same,Activity,[18],109%
same,Activity,[19],98%
same,Activity,[20],112%
same,Activity,[21],111%
same,Activity,[22],124%
same,Activity,[23],118%
same,Activity,[24],106%
same,Activity,[25],113%
same,Activity,[26],110%
